How the values were obtained:
Assay in all cases: radiometric filter-binding kinase assay, Kinase HotSpot
Conditions in all cases: compound 0.5 µM; ATP 10 µM
NUAK1 (human) = NUAK1 (human) (UniProt O60285)
YES1 (human) = YES1 (human) (UniProt P07947)
CDC42BPB (human) = CDC42BPB (human) (UniProt Q9Y5S2)
PRKCD (human) = PRKCD (human) (UniProt Q05655)
TGFBR2 (human) = TGFBR2 (human) (UniProt P37173)
JAK3 JH1 JH2 (human) = JAK3 JH1 JH2 (human) (UniProt P52333)
DYRK4 (human) = DYRK4 (human) (UniProt Q9NR20)
FGFR4 (human) = FGFR4 (human) (UniProt P22455)
DYRK1B (human) = DYRK1B (human) (UniProt Q9Y463)
MAP3K10 (human) = MAP3K10 (human) (UniProt Q02779)
ABL2 (human) = ABL2 (human) (UniProt P42684)
PDPK1 (human) = PDPK1 (human) (UniProt O15530)
PDPK1 (human), sequence (O15530 whole entry, looked up): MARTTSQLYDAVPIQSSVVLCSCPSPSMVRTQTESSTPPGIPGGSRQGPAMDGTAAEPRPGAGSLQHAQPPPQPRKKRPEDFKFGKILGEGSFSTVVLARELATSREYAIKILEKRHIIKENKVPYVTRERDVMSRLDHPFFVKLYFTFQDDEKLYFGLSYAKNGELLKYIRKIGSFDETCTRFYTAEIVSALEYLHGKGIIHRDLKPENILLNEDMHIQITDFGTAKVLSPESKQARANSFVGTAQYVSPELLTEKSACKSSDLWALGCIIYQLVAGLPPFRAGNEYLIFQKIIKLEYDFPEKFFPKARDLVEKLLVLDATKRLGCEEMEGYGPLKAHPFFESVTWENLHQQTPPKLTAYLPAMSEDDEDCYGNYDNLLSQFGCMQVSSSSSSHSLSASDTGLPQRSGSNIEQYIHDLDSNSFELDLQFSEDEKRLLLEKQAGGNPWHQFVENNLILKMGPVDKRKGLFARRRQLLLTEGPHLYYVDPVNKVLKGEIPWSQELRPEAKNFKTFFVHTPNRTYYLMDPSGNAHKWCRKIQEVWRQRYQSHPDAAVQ

SRPK1 (human) = SRPK1 (human) (UniProt Q96SB4)
SRPK1 (human), sequence (Q96SB4 whole entry, looked up): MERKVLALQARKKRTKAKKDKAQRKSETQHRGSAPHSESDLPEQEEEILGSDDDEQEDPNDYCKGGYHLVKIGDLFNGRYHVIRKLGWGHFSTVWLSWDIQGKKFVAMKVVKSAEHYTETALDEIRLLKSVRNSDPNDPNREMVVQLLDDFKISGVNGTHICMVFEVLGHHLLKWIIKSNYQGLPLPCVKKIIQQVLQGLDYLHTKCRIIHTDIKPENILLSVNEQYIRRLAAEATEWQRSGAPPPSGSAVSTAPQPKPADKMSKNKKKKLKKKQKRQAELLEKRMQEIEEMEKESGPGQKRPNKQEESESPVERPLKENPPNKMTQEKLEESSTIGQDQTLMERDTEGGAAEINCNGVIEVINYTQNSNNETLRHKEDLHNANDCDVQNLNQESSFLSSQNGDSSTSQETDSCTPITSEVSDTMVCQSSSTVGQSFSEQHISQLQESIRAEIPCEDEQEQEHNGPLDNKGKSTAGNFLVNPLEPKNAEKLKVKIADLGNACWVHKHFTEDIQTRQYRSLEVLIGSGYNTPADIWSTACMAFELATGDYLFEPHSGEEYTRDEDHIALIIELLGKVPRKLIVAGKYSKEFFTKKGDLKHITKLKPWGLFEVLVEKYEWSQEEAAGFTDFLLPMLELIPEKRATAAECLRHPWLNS

PAK2 (human) = PAK2 (human) (UniProt Q13177)
PAK1 (human) = PAK1 (human) (UniProt Q13153)
CDK7 CCNH MNAT1 (human) = CDK7 CCNH MNAT1 (human) (UniProt P50613+P51948+P51946)
PRKCE (human) = PRKCE (human) (UniProt Q02156)
NTRK2 (human) = NTRK2 (human) (UniProt Q16620)
NTRK2 (human), sequence (Q16620 whole entry, looked up): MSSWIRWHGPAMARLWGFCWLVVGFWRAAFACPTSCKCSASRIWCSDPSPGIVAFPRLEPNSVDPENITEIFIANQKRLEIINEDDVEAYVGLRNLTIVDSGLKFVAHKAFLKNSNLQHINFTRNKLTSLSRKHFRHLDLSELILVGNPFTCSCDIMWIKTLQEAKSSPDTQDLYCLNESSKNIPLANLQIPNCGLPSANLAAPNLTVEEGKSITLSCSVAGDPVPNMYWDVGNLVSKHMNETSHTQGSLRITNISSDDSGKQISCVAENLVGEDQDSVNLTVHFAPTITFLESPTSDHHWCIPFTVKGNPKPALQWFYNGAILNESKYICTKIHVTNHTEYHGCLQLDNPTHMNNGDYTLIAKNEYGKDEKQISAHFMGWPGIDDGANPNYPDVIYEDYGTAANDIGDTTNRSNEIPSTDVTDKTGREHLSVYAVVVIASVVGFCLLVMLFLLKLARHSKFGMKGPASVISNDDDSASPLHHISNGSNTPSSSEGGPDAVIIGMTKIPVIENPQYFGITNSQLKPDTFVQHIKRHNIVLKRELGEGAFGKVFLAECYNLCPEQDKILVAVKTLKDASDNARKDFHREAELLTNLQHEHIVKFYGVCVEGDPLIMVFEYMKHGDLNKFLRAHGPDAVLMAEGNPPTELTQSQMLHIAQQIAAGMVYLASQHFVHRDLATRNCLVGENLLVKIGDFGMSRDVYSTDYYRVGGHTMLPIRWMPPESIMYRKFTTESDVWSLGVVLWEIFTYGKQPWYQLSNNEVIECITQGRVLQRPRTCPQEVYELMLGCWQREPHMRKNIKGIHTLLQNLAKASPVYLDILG

CDK9 CCNT1 (human) = CDK9 CCNT1 (human) (UniProt P50750+O60563)
LIMK1 (human) = LIMK1 (human) (UniProt P53667)
LIMK1 (human), sequence (P53667 whole entry, looked up): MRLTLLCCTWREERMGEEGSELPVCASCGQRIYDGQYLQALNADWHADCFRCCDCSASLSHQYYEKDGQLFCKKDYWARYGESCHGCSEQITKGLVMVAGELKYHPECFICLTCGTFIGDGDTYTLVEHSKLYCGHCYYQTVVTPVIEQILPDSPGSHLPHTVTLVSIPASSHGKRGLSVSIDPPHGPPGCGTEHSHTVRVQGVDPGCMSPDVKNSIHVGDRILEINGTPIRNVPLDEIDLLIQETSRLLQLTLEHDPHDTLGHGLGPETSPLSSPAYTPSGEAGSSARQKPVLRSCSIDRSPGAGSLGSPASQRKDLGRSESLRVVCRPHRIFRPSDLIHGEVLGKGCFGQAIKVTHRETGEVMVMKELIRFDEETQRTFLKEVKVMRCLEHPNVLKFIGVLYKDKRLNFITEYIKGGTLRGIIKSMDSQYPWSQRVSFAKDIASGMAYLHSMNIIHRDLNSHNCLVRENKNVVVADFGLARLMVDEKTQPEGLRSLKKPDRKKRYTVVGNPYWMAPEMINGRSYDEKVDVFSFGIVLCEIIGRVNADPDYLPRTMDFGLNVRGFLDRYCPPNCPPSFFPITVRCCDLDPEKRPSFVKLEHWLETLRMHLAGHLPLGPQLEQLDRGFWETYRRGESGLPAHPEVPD

FLT3 (human) = FLT3 (human) (UniProt P36888)
MARK1 (human) = MARK1 (human) (UniProt Q9P0L2)
MAPKAPK5 (human) = MAPKAPK5 (human) (UniProt Q8IW41)
PLK3 (human) = PLK3 (human) (UniProt Q9H4B4)
ACVRL1 (human) = ACVRL1 (human) (UniProt P37023)
MAP2K1 (human) = MAP2K1 (human) (UniProt Q02750)
PBK (human) = PBK (human) (UniProt Q96KB5)
GSK3B (human) = GSK3B (human) (UniProt P49841)
GSK3B (human), sequence (P49841 whole entry, looked up): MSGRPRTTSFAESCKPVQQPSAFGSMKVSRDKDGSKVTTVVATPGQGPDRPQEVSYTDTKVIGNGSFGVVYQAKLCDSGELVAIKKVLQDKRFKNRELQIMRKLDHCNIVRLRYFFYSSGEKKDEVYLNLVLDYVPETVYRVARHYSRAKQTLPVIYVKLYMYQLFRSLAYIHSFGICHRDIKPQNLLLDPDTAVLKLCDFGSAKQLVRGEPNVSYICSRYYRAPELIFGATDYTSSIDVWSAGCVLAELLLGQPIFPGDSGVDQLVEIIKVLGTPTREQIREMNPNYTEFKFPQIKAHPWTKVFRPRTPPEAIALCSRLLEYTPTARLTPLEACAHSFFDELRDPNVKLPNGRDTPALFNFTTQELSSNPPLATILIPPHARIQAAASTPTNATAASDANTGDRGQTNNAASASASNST

EPHA6 (human) = EPHA6 (human) (UniProt Q9UF33)
CDK9 CCNK (human) = CDK9 CCNK (human) (UniProt O75909+P50750)
PNCK (human) = PNCK (human) (UniProt Q6P2M8)
TAOK2 (human) = TAOK2 (human) (UniProt Q9UL54)
DSTYK (human) = DSTYK (human) (UniProt Q6XUX3)
MERTK (human) = MERTK (human) (UniProt Q12866)
JAK2 JH1 JH2 (human) = JAK2 JH1 JH2 (human) (UniProt O60674)
[1] = molecular target: TYK2 JH1 catalytic (human) (UniProt P29597)
PRKG2 (human) = PRKG2 (human) (UniProt Q13237)
CAMK1D (human) = CAMK1D (human) (UniProt Q8IU85)
CSNK1G3 (human) = CSNK1G3 (human) (UniProt Q9Y6M4)
DAPK2 (human) = DAPK2 (human) (UniProt Q9UIK4)
GRK5 (human) = GRK5 (human) (UniProt P34947)

NUAK1 (human), sequence (O60285 whole entry, looked up): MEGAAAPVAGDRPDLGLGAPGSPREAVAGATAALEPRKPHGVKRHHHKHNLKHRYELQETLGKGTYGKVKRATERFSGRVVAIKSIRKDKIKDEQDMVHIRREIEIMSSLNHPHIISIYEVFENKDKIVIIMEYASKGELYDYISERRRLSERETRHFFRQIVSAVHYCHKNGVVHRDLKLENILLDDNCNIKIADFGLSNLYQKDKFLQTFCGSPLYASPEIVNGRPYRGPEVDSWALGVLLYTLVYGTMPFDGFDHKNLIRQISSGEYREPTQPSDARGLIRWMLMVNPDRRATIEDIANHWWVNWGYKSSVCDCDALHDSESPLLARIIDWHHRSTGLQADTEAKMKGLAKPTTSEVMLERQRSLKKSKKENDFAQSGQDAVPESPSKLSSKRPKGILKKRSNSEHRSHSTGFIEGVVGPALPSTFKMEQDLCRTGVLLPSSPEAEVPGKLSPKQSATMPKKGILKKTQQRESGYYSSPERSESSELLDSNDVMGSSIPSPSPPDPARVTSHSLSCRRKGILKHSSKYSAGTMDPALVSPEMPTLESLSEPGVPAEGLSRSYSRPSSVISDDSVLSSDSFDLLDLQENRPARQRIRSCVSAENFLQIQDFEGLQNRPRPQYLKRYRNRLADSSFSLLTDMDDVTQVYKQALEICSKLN
PRKCD (human), sequence (Q05655 whole entry, looked up): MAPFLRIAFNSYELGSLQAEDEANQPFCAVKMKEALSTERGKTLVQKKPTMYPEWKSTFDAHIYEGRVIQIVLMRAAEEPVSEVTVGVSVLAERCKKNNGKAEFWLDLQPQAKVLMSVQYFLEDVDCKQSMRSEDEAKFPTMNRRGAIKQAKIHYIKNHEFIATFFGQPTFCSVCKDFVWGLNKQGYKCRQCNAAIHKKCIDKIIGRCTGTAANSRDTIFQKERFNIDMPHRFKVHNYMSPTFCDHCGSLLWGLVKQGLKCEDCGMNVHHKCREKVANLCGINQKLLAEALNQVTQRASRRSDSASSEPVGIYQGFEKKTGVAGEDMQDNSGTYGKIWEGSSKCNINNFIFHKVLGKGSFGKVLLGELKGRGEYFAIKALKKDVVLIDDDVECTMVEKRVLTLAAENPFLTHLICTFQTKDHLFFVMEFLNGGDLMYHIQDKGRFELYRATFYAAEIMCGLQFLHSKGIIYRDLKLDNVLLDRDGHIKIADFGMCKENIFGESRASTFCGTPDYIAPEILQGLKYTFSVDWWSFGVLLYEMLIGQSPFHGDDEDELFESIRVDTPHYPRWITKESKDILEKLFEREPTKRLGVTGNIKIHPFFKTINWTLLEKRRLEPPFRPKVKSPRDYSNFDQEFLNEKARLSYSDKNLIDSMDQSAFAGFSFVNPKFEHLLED
YES1 (human), sequence (P07947 whole entry, looked up): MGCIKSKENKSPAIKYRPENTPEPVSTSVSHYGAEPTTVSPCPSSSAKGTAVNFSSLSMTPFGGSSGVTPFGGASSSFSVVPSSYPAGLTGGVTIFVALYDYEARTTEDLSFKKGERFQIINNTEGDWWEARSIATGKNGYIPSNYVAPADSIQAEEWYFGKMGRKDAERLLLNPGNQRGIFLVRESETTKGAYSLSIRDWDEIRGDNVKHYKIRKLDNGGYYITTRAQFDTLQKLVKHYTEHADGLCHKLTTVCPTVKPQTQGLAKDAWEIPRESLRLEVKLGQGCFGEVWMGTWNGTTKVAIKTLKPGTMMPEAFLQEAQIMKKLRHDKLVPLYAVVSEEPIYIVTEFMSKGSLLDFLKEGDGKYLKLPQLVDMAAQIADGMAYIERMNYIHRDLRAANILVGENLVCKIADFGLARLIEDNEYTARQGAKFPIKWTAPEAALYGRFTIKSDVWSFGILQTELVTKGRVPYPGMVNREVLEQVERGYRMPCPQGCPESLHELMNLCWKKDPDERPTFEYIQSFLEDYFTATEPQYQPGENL

Structure (SMILES) | residual activity (NUAK1 (human)) [%] | residual activity (YES1 (human)) [%] | residual activity (PRKCD (human)) [%] | residual activity (TGFBR2 (human)) [%] | residual activity (JAK3 JH1 JH2 (human)) [%] | residual activity (DYRK4 (human)) [%] | residual activity (FGFR4 (human)) [%] | residual activity (DYRK1B (human)) [%] | residual activity (MAP3K10 (human)) [%] | residual activity (ABL2 (human)) [%] | residual activity (PDPK1 (human)) [%] | residual activity (SRPK1 (human)) [%] | residual activity (PAK2 (human)) [%] | residual activity (PAK1 (human)) [%] | residual activity (CDK7 CCNH MNAT1 (human)) [%] | residual activity (PRKCE (human)) [%] | residual activity (NTRK2 (human)) [%] | residual activity (CDK9 CCNT1 (human)) [%] | residual activity (LIMK1 (human)) [%] | residual activity (FLT3 (human)) [%] | further results
CCN(CC)CCNC(=O)c1c(C)[nH]c(/C=C2\C(=O)Nc3ccc(F)cc32)c1C | 2.75 | 5.91 | 95.1 | 92.5 | 80.7 | 104 | 92.5 | 60 | 104 | 61.8 | 81.6 | 97 | 98.1 | 118 | 73.4 | 98 | 9.78 | 88.7 | 94.3 | 2.71 | residual activity (CDC42BPB (human)): 101%; residual activity (MARK1 (human)): 40.9%; residual activity (MAPKAPK5 (human)): 82.7%; residual activity (PLK3 (human)): 96.5%; residual activity (ACVRL1 (human)): 112%; residual activity (MAP2K1 (human)): 67.8%; residual activity (PBK (human)): 106%; residual activity (GSK3B (human)): 95.8%; residual activity (EPHA6 (human)): 29.5%; residual activity (CDK9 CCNK (human)): 80.2%; residual activity (PNCK (human)): 98.5%; residual activity (TAOK2 (human)): 90.3%; residual activity (DSTYK (human)): 111%; residual activity (MERTK (human)): 39.8%; residual activity (JAK2 JH1 JH2 (human)): 88.8%; residual activity [1]: 52.6%; residual activity (PRKG2 (human)): 96.1%
c1ccc(-c2n[nH]c3c2oc2ccccc23)cc1 | 96.2 | 86.1 | 96.7 | 94.1 | 132 | 99.7 | 85.5 | 101 | 91.4 | 86.7 | 94.7 | 113 | 92.3 | 94.9 | 101 | 86 | 64 | 83.9 | 71.2 | 12.1 | residual activity (CDC42BPB (human)): 99%; residual activity (CAMK1D (human)): 92.9%; residual activity (CSNK1G3 (human)): 88.5%; residual activity (DAPK2 (human)): 71.2%; residual activity (MARK1 (human)): 98.6%; residual activity (MAPKAPK5 (human)): 103%; residual activity (PLK3 (human)): 99.2%; residual activity (ACVRL1 (human)): 111%; residual activity (MAP2K1 (human)): 96.4%; residual activity (PBK (human)): 94.8%; residual activity (GSK3B (human)): 105%; residual activity (GRK5 (human)): 123%; residual activity (CDK9 CCNK (human)): 86.2%; residual activity (PNCK (human)): 98.6%; residual activity (TAOK2 (human)): 80.7%; residual activity (DSTYK (human)): 82.9%; residual activity (MERTK (human)): 80%; residual activity (JAK2 JH1 JH2 (human)): 89.8%; residual activity [1]: 89.2%; residual activity (PRKG2 (human)): 109%
O=C(Nc1cccc(Nc2nccc(Nc3cccc(C(F)(F)F)c3)n2)c1)C1CC1 | 67.2 | 78.9 | 87.9 | 91.6 | 109 | 107 | 101 | 96.3 | 96.4 | 83.8 | 104 | 104 | 105 | 89.5 | 92.6 | 106 | 71.6 | 86.8 | 45.1 | 73.1 | residual activity (CDC42BPB (human)): 96.6%; residual activity (CAMK1D (human)): 100%; residual activity (CSNK1G3 (human)): 93.5%; residual activity (DAPK2 (human)): 120%; residual activity (MARK1 (human)): 104%; residual activity (MAPKAPK5 (human)): 91.9%; residual activity (PLK3 (human)): 90.2%; residual activity (ACVRL1 (human)): 84.6%; residual activity (MAP2K1 (human)): 98%; residual activity (PBK (human)): 101%; residual activity (GSK3B (human)): 101%; residual activity (GRK5 (human)): 104%; residual activity (CDK9 CCNK (human)): 107%; residual activity (PNCK (human)): 106%; residual activity (TAOK2 (human)): 92.4%; residual activity (DSTYK (human)): 93.8%; residual activity (MERTK (human)): 90.1%; residual activity (JAK2 JH1 JH2 (human)): 47.7%; residual activity [1]: 42.5%; residual activity (PRKG2 (human)): 96.2%
O=C1NC(=O)c2c1c1c3ccccc3n3c1c1c2c2ccccc2n1C1CCC3O1 | 2.09 | 31.9 | 19 | 70.3 | 1.87 | 87.8 | 70.4 | 3.15 | 2.66 | 68 | 10.6 | 88.1 | 43.9 | 23.6 | 80.4 | 28.4 | 6.87 | 8.52 | 49.3 | 0.194 | residual activity (CAMK1D (human)): 33.6%; residual activity (CSNK1G3 (human)): 108%; residual activity (DAPK2 (human)): 39.4%; residual activity (MARK1 (human)): 10.4%; residual activity (MAPKAPK5 (human)): 80.4%; residual activity (PLK3 (human)): 52.5%; residual activity (ACVRL1 (human)): 78.6%; residual activity (MAP2K1 (human)): 29.5%; residual activity (PBK (human)): 39.9%; residual activity (GSK3B (human)): 4.6%; residual activity (EPHA6 (human)): 63.9%; residual activity (GRK5 (human)): 88.7%; residual activity (CDK9 CCNK (human)): 15.8%; residual activity (PNCK (human)): 50.5%; residual activity (TAOK2 (human)): 57.4%; residual activity (DSTYK (human)): 45.5%; residual activity (MERTK (human)): 13.6%; residual activity (JAK2 JH1 JH2 (human)): 14.2%; residual activity [1]: 4.32%; residual activity (PRKG2 (human)): 6.01%
COc1ccc2c(c[n+](C)c3c4cc5c(cc4ccc23)OCO5)c1OC | 96.6 | 93.8 | 96.8 | 71.6 | 101 | 95.1 | 90.1 | 102 | 91.7 | 96.7 | 98.2 | 95.3 | 101 | 98.7 | 91.9 | 93.6 | 104 | 96.4 | 109 | 76.9 | residual activity (CDC42BPB (human)): 107%; residual activity (CAMK1D (human)): 105%; residual activity (CSNK1G3 (human)): 92.5%; residual activity (DAPK2 (human)): 93.9%; residual activity (MARK1 (human)): 91.4%; residual activity (MAPKAPK5 (human)): 83.5%; residual activity (PLK3 (human)): 100%; residual activity (ACVRL1 (human)): 99.2%; residual activity (MAP2K1 (human)): 97.8%; residual activity (PBK (human)): 102%; residual activity (GSK3B (human)): 88.3%; residual activity (GRK5 (human)): 110%; residual activity (CDK9 CCNK (human)): 95.6%; residual activity (PNCK (human)): 103%; residual activity (TAOK2 (human)): 95%; residual activity (DSTYK (human)): 86.4%; residual activity (MERTK (human)): 90.8%; residual activity (JAK2 JH1 JH2 (human)): 102%; residual activity [1]: 108%; residual activity (PRKG2 (human)): 68.7%

Reference: the kinase profiling compilation of Christmann-Franck et al. (2016)
